Experimental data as given in patent US9573907B2, “2, 4-pyrimidine derivatives and use thereof” (SNU R&DB FOUNDATION, priority 2009, dated 2017).
“Also recorded” adds a separate entry of the source.

Experiments:
[1] = target: T1, gp96 V706A/L707A (Homo sapiens, UniProt P14625, L711A/V710A); assay: Surface plasmon resonance, GPM1 binding to gp96 mutant V706A/L707A
T1 construct: made in house; host or cells: Escherichia coli BL21 (DE3)
Procedure: (§1) Human gp96 was expressed as His tag fusion protein in Escherichia coli BL21 (DE3) and purified by nickel affinity chromatography. His-tagged human gp96 was immobilized onto CM5 sensor chips using standard amine coupling2. PBS was used as a running buffer. The carboxymethyl dextran surface within one side of the flow cell was activated with a 7-min injection of a 1:1 ratio of 0.4M EDC and 0.1M NHS. The protein was coupled to the surface with a 7-min injection of gp96 diluted in 10 mM sodium acetate, pH 3.7. Remaining activated groups were blocked with a 7-min injection of 1.0M ethanolamine, pH 8.5. GPM1 compound was dissolved directly in the PBS running buffer containing 1% DMSO and injected at a flow rate of 20 μl/min at 25° C. and the binding was determined by the change in resonance units (RU). The compound concentration varied from 10 nM to 25 μM and each concentration was tested at least three times. All of the bound complexes dissociated back to baseline within a reasonable time frame. Therefore, no regeneration was required. Sensorgram was processed by subtracting the binding response recorded from the control surface, followed by subtracting an average of the buffer blank injections from the reaction spot. To determine kinetic rate constants, all data sets were fit to a simple 1:1 binding with drifting baseline model using BIAevaluation program.
(§2) The present inventors compared the dose-dependent effect of GPM1 and NC1 on the interaction of gp96 and AIMP1 using ELISA. […] The present inventors monitored the binding kinetics of GPM1 to gp96 or AIMP1 by surface plasmon resonance (SPR) using BIAcore 3000. […] To further define the GPM1 binding region of gp96 (Han, J. M., Park, S. G., Liu, B., Park, B. J., Kim, J. Y., Jin, C. H., Song, Y. W., Li, Z. & Kim, S. Am. J. Pathol. 170, 2042-2054 (2007)), the present inventors introduced point mutations at L707, V706, V712, L713, F714, Y731 and M738 that are located within AIMP1 binding region of gp96 and monitored how the mutations at these sites would affect the binding of GPM1 to gp96 using SPR method.

[2] = target: T2, AIMP1 (Homo sapiens, UniProt Q12904); assay: Surface plasmon resonance, binding to AIMP1; conditions: SPR, BIAcore 3000
T2 sequence (Q12904 1-312): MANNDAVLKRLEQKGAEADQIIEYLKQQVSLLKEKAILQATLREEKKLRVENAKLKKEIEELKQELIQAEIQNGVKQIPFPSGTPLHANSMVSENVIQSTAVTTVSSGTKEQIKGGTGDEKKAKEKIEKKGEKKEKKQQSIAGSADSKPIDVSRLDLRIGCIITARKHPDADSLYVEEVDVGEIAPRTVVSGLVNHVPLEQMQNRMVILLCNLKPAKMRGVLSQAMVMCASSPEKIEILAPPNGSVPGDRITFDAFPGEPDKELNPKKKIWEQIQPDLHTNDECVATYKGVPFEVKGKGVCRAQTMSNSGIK
Text: as §2

[3] = target: T3, gp96 Y731F (Homo sapiens, UniProt P14625, Y735F); assay: Surface plasmon resonance, GPM1 binding to gp96 mutant Y731F
T3 construct: made in house; host or cells: Escherichia coli BL21 (DE3)
Procedure: as §1, §2

[4] = target: gp96 (Homo sapiens, UniProt P14625); assay: ATPase activity of gp96 (ATPase assay kit); format: biochemical; conditions: 0 vs. 100 μM
Procedure: FIG. 22 represents the effect of point mutations on the ATPase activity of gp96. (a) The effect of gp96 point mutations on its ATPase activity was examined using ATPase assay kit (Innova Biosciences, Cambridge, UK). One unit is the amount of enzyme that catalyzes the reaction of 1 μmol of substrate per minute. The enzymatic activity was calculated according to manufacturer's instruction.
FIG. 23 represents the effect of GPM1 on the ATPase activity gp96. (a) The dose-dependent effect of GPM1 on the ATPase activity.

[5] = test system: NZB/W F1 mouse; assay: Survival rate of a lupus animal model; format: in vivo; conditions: 30 mg/kg intraperitoneally once a day, 25-week aged male mice
Procedure: An NZB/W F1 mouse is a lupus animal model showing a voluntary lupus symptom. On the animal model, the effect of 2,4-pyrimidine derivatives was tested.
Each group included 10, 25-week aged male NZB/W F1 mice. Each group was intraperiotneally administered with a control (5% DMSO solution) or a testing agent (2,4-pyrimidine derivative in a dose of 30 mg/kg) once a day. Except for mice which died by worsening of lupus symptoms, the ratio of surviving mice was analyzed.

T3 sequence (P14625 22-803 Y735F): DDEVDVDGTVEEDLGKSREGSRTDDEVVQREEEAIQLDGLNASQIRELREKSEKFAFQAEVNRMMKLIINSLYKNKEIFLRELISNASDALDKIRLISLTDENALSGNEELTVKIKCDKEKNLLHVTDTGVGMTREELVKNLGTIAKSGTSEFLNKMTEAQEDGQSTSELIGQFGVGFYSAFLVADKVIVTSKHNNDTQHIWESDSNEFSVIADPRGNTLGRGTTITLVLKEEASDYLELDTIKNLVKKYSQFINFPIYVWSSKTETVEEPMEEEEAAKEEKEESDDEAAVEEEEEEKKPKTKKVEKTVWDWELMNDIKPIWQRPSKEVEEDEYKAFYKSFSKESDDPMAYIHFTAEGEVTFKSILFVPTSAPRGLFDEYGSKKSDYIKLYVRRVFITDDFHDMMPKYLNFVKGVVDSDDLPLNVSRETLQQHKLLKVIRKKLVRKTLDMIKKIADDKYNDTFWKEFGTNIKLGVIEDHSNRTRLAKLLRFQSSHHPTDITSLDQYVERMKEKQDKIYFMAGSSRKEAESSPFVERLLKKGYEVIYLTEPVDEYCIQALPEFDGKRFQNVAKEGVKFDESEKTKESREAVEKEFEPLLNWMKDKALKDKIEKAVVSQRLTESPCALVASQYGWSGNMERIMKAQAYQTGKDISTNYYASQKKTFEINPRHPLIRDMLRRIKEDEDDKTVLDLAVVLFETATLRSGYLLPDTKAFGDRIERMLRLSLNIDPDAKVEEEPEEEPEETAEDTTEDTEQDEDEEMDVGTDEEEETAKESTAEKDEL
T1 sequence (P14625 22-803 V710A/L711A): as the sequence (P14625 22-803 Y735F) above, with V689A, L690A, F714Y counted along it
Sequence of gp96 (P14625 22-803): as the sequence (P14625 22-803 Y735F) above, with F714Y counted along it

COC(=O)[C@@H](Oc1nc(OC)cc(OC)n1)C(C)C [GPM1, (S)-methyl 2-(4,6-dimethoxypyrimidin-2-yloxy)-3-methylbutanoate]
Kd [1]: 88.6 nM
koff (dissociation rate constant) [1]: 0.0102 s⁻¹
kon ([1]; read-out: Ka): 115000 M⁻¹ s⁻¹
binding to AIMP1 [2]: no apparent binding
Kd [3]: 730 nM
koff (dissociation rate constant) [3]: 0.0149 s⁻¹
kon ([3]; read-out: Ka): 20400 M⁻¹ s⁻¹
effect on the gp96 ATPase activity [4]: little effect; also recorded: did not affect
ratio of mice which died by lupus [5]: significantly reduced
